Results reported in the NIST ThermoML archive (doi:10.1016/j.jct.2010.02.014).

Assay: cn = amount concentration of the nth substance listed, in mol/dm3
Details: 298.15 K, 101.3 kPa, Liquid, Taylor dispersion method

With `NNC(=O)c1ccncc1` [isonicotinic acid hydrazide] + O the binary diffusion coefficient (c1 = 0) was 8.26e-10 m2/s, the binary diffusion coefficient (c1 = 0.005) was 8.25e-10 m2/s and the binary diffusion coefficient (c1 = 0.01) was 8.23e-10 m2/s. For the same compound, the binary diffusion coefficient (c1 = 0.02) was 8.21e-10 m2/s.
